Measured values as given in the METLIN SMRT retention time set (Domingo-Almenara et al. 2019).

Experiment: gradient 5% acetonitrile 3 min, to 50% in 2 min, to 85% in 15 min, held 3 min, 100 µL/min
Details: column: Zorbax Extend-C18 2.1 x 50 mm; eluents: water / acetonitrile, 0.1% formic acid
Method in brief: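 Using water and acetonitrile that each contained 0.1% formic acid, mixtures of ~100 pure standards were separated at 100 μL/min on a Zorbax Extend-C18 column (2.1 × 50 mm, 1.8 μm). The HPLC fed a quadrupole time-of-flight mass spectrometer working in positive and negative ionization mode, with dead and dwell volumes of 40 μL and 900 μL. Data were acquired over 3 months. Retention time was read from computationally picked adduct peaks after manual inspection of each.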

| SMILES | RP-LC retention time [s] |
| --- | --- |
| COc1cccc(CNC(=O)C2CCCN(c3nc4ccccc4nc3OC)C2)c1 (stereo not given) | 1010 |
| CC(NC(=O)CCCn1c2ccccc2c2cnn(C)c(=O)c21)c1ccc2c(c1)OCCO2 (stereo not given) | 842 |
| Cc1ccc(NC(=O)N2CCCC2c2c(C)noc2C)cc1 (stereo not given) | 728 |
| Cc1nn(C(C)C(=O)N2CCOCC2)c(=O)c2nn(-c3ccccc3)c(C)c12 (stereo not given) | 684 |
| Cc1onc(-c2ccccc2)c1C(=O)NC1C(=O)N2C1SC(C)(C)C2C(=O)O (stereo not given) | 818 |
| COCCOc1cc(=O)n2c(c1C(=O)NC1CCC1)CCOCC2 | 575 |
| O=C(NC1CCN(c2cc(-c3ccccc3)[nH]n2)C1)c1ccc(F)c(Cl)c1 (stereo not given) | 767 |
| Clc1c(Cl)c(Cl)c2n[nH]nc2c1Cl | 962 |
| Cc1cc(C2CCCN2C(=O)Cc2ccc(F)cc2Cl)on1 (stereo not given) | 851 |
| CCOC(=O)C1CCN(C(=O)C2CCCN(c3nc4ccccc4[nH]3)C2)CC1 (stereo not given) | 646 |
| NC(=O)c1ccccc1NC(=O)C1CN(c2nc3c(F)cccc3s2)C1 | 706 |
| CC(=O)c1ccc(NC(=O)CCSc2ccc(Cl)cc2)cc1 | 887 |
| Cc1cc(N2CCCCC2)nc(N2CCN(C(=O)C3CCCCC3)CC2)n1 | 728 |
| CN1CCC(NC(=O)c2n[nH]c3c2CN(C(=O)c2ccc(F)cc2F)CC3)CC1 | 578 |
| CC1CCN(S(=O)(=O)c2ccc3nn(C)c(=O)n3c2)CC1 | 744 |
| CC(=O)c1ccc(N2CCN(C(=O)c3nnn4c3COC(c3ccc(F)cc3)C4)CC2)cc1 (stereo not given) | 914 |
| Cn1c(=O)n(CC(=O)O)c(=O)c2c1nc1n2CCCN1c1ccc(Cl)cc1 | 749 |
| Cc1cccc(C(=O)N2C(C(=O)NCC3CCCO3)COC23CCN(C(=O)C(C)(C)C)CC3)c1 (stereo not given) | 684 |
| OC(COc1ccc(Cl)cc1)CN1CCN(c2cccc(Cl)c2)CC1 (stereo not given) | 866 |
| CC(=O)C1=C(C)N(Cc2ccccc2)C(=O)C1(NC(=O)C1CCCCC1)C(F)(F)F (stereo not given) | 1020 |
| CCc1cccc(NC(=O)N2CCN(c3cc(C)nc(N4CCCC4)n3)CC2)c1 | 704 |
| Clc1ccc(-c2nc(N3CCCC3)c3ccccc3n2)cc1 | 726 |
| CCn1cc(C2=CCN(S(=O)(=O)c3ccc(OC)cc3)CC2)c2cccnc21 | 986 |

| SMILES | RP-LC retention time [s] |
| --- | --- |
| COc1cccc(C(=O)N2CCC(c3cc(N)on3)CC2)c1 | 653 |
| O=C1CC(c2ccc(C(=O)O)cc2)c2scc(-c3cccc(F)c3)c2N1 (stereo not given) | 823 |
| COc1cccc(NC(=O)N2CCc3cn(C)c4cccc(c34)C2)c1 | 771 |
| Cc1cc(C(=O)N2CCCn3nc(-c4cccs4)cc3C2)no1 | 791 |
| O=C(CCNc1c(-c2cccc(F)c2)nc2cnccn12)NCc1cccc(Cl)c1 | 772 |
| Cc1nnc(-c2cn(CC(=O)Nc3ccccc3F)c3ccccc23)o1 | 799 |
| Cc1ccc(NC(=O)c2cnn3c2CCCC3)c(C)c1 | 762 |
| CCCN(CC1CCOC1)C(=O)c1ccc(F)cc1Cl (stereo not given) | 773 |
| CCc1ccc(Oc2cc(N3CCC(C(=O)Nc4ccc(C)c(C)c4)CC3)ncn2)cc1 | 1160 |
| O=c1c2ccccc2c(-c2nc(-c3cccnc3)no2)cn1-c1ccccc1 | 1010 |
| CC(=O)NCc1ccc(-c2noc(-c3cccc(Br)c3)n2)s1 | 922 |
| CN1CCN(CCNC(=O)C2c3ccccc3C(=O)N(C3CCCC3)C2c2cccs2)CC1 (stereo not given) | 633 |
| COc1cccc(CN2CCC(Oc3ccccc3-c3nc(-c4cnccn4)no3)C2)n1 (stereo not given) | 702 |
| COC(=O)c1ccccc1Sc1c(-c2ccccc2)nc2ncccn12 | 875 |
| COCCN1C(=O)Cc2ccccc2C1C(=O)N1CCCCC1 (stereo not given) | 725 |
| CCOc1cc(C(=O)Nc2c(-c3ccc(F)cc3)nc3cc(C)ccn23)cc(OCC)c1OCC | 819 |
| CCCOc1nc2ccccc2nc1N1CCCC(C(=O)NCc2ccccc2Cl)C1 (stereo not given) | 1270 |
| COc1cc2nc(C(=O)N3CCCCC3)cc(Nc3ccc(F)c(Cl)c3)c2cc1OC | 735 |
| CCN(Cc1ccccc1)C(=O)Cn1c(N)nc(C)cc1=O | 596 |
| O=C(CCn1cnc2c(cnn2-c2ccccc2)c1=O)N1CCN(C(=O)c2ccco2)CC1 | 653 |
| CCn1cnc(S(=O)(=O)N2CCC(C(=O)Nc3cccc4c3CCCC4)CC2)c1 | 792 |
| O=C(Cn1ncc2c3ccccc3n(Cc3ccc(F)cc3)c2c1=O)N1CCN(c2ccccn2)CC1 | 689 |
| Cc1ccc2oc(-c3nnc(C(=O)NCCN4CCCCCC4)o3)c(C)c2c1 | 720 |

| SMILES | RP-LC retention time [s] |
| --- | --- |
| COc1ccc(Cc2nc3nccc(-c4ccc(F)cc4OC)n3n2)cc1 | 871 |
| Cc1cc(=O)n(Cc2ccc(F)cc2)c(N2CCSCC2)n1 | 917 |
| NC(=O)COc1cc(-c2cccc(Cl)c2)nc2ccc(NC(=O)C3CC3)cc12 | 667 |
| Cc1nn(-c2nc(-c3ccc(Cl)cc3)cs2)c(C)c1CC(=O)N1CCCCCC1 | 793 |
| O=C(CN1CCC(c2nc(-c3cccs3)no2)CC1)NCc1ccc(F)cc1 | 684 |
| CCC(C)N1CCN(C(=O)CCc2ccc3c(c2)CN(C(=O)C2CC2)CCO3)CC1 (stereo not given) | 598 |
| COc1ccc(CNC(=O)C(C)n2ccc3cc(S(=O)(=O)N4CCCCC4)ccc32)c(OC)c1 (stereo not given) | 959 |
| O=C(NCCOc1ccc2nnc(-c3cccc(F)c3)n2n1)c1ccc(=O)[nH]n1 | 598 |
| Cc1cc(-c2csc(S(=O)(=O)NCCCN3CCN(c4ccccc4F)CC3)c2)on1 | 704 |
| CCc1ccc(NC(=O)Cn2cnc3nc(N4CCCC(C(=O)NC5CC5)C4)sc3c2=O)cc1 (stereo not given) | 743 |
| O=C(Nc1cccc(C(F)(F)F)c1)Nc1nc(-c2ccccc2)cs1 | 1140 |
| Cc1cccc(-c2noc(Cn3c(=O)n(-c4ccc(Cl)cc4)c(=O)c4sccc43)n2)c1 | 1100 |
| N#Cc1cc2c(nc1SCC(=O)Nc1nccs1)CCCCC2 | 871 |
| COCCNC(=O)Cn1nc(C)c2c(C)n(-c3ccccc3)nc2c1=O | 649 |
| O=C(CCc1c[nH]c2ccccc12)N1[C@H]2CC[C@@H]1c1cnc(-c3ccccc3)nc1C2 | 884 |
| O=C(Cc1csc(NC(=O)c2ccccc2)n1)Nc1ccc(F)c(Cl)c1 | 869 |
| COc1ccccc1NC(=O)Cn1c(C(F)(F)F)nc2cc3c(cc21)OCCO3 | 886 |
| O=C(CN1CCN(Cc2ccccc2F)C1=O)NCc1ccc(N2CCOCC2)cc1 | 699 |
| Cc1ccc(NC(=O)Nc2ccccc2)c(=O)n1CC(=O)NCC1CCCO1 (stereo not given) | 697 |
| CCCCCC(=O)Nc1cc(-c2nc3ccc(C)cc3[nH]2)ccc1C | 750 |
| COC(=O)C(C)NC(=O)N1CCC2(CC1)NC(=O)c1ccccc1O2 (stereo not given) | 621 |
| CN1c2cc(F)ccc2C(=O)NC12CCN(C(=O)Cc1cccc(F)c1)CC2 | 752 |
| COc1ccc(S(=O)(=O)N2CCCC(C(N)=O)C2)cc1Cl (stereo not given) | 701 |

| SMILES | RP-LC retention time [s] |
| --- | --- |
| CCn1cc(CCNC(=O)NCC(C)C)c2cccnc21 | 636 |
| CCOc1ccc(OCC)c(NC(=O)CCc2c(-c3ccc(Cl)cc3)nc3ccccn23)c1 | 788 |
| CC(C)c1noc(-c2cc(=O)n(CC(=O)NCc3ccccc3)c3ccccc23)n1 | 940 |
| O=C1CCCc2nc(N3CCN(c4ccccn4)CC3)ncc21 | 566 |
| COc1ccc(-c2nnc(CC(=O)NCC3CCCO3)o2)cc1 (stereo not given) | 650 |
| O=C(Nc1ccccc1)N1CCc2[nH]cnc2C1c1ccccn1 (stereo not given) | 598 |
| COc1ccccc1N1CCN(C(=O)c2cc(S(=O)(=O)N3CCCCC3)cn2C)CC1 | 893 |
| CCOc1cc(=O)n2c(c1C(=O)Nc1cc(OC)c(OC)c(OC)c1)CCCC2 | 967 |
| Cc1ccc(F)cc1S(=O)(=O)Nc1cccn2c(C3CCC3)nnc12 | 817 |
| Cc1nc(-c2ccc(C(F)(F)F)cc2)ncc1C(=O)NCCc1cccs1 | 1120 |
| O=C(NCc1cccnc1)c1c2c(nc3ccccc13)C(=O)N(C1CCCCC1)C2 | 612 |
| CCC/C(C)=C/c1ccc(CC)cn1 | 708 |
| Cc1ccc(-c2noc(CN3N=NC4C(=O)N(c5ccc(F)c(Cl)c5)C(=O)C43)n2)cc1 (stereo not given) | 1090 |
| Clc1ccc(Cl)c(-c2ccc(CNCc3cccnc3)o2)c1 | 664 |
| COc1cccc(C(=O)N2CCN(S(=O)(=O)c3cc4c5c(c3)CCC(=O)N5CCC4)CC2)c1 | 770 |
| COc1ccc(N2CCN(c3cc(SCC(=O)Nc4ccc(OC)cc4OC)ncn3)CC2)cc1 | 962 |
| O=C(Cc1cccs1)Nc1cccc(OCc2nnc(-c3ccc(Cl)cc3)o2)c1 | 1010 |
| Cc1ccc(F)c(-n2nnc(C(=O)O)c2-c2ccccn2)c1 | 917 |
| Cc1cc(C)cc(N2C(=O)CN(CC(C)C)[C@H]3CS(=O)(=O)C[C@H]32)c1 | 619 |
| CN1CCCc2ccc(NC(=O)CC3CCCN(c4cn[nH]c(=O)c4)C3)cc21 (stereo not given) | 638 |
| Cc1ccc(C(=O)CC2(O)C(=O)Nc3ccc(F)cc32)cc1C (stereo not given) | 776 |
